In assay [1] the target is T1, N-type calcium channel α1B (Cav2.2), β3 and α2δ subunits (Homo sapiens, UniProt Q00975).
T1 construct: expressed in transfected cells
Nature of the assay: Functional assay, antagonism of N-type calcium channel (FDSS calcium mobilization response to KCl depolarization). The class given is cell-based. The following applies: for IC50: HEK stable cell line, 50 mM KCl depolarization, six-point concentration-response; for inhibition at 0.33 µM: 0.33 μM compound, FDSS, 50 mM KCl. The procedure: A stable cell line (HEK parent) co-expressing the α1B (Cav2.2), β3 and α2δ subunits of the N-type calcium channel subunits was used. These cells were routinely grown as monolayers in low glucose-containing Dulbecco's Modified Eagle Medium supplemented with 10% FBS, 2 mM L-glutamine, 100 I.U./mL penicillin, 100 μg/mL streptomycin, 400 μg/mL G418 and 200 μg/mL Zeocin (split ratio=1:5). Cells were maintained in 5% CO2 at 37° C. Compounds of Formula (I) were prepared as 10 mM stocks in DMSO from neat compound, if available. Otherwise, the 5 or 10 mM DMSO stock solutions provided in-house were used.
Calcium mobilization responses to KCl depolarization were evaluated by measuring the intensity of calcium-mediated fluorescent signal in the presence of BD Calcium Assay Dye (BD Biosciences, Franklin Lakes, N.J., U.S.A.), utilizing a Functional Drug Screening System (FDSS) by Hamamatsu Corporation (Bridgewater, N.J. U.S.A.).
Twenty-four hr prior to assay, cells were seeded in clear-base poly-D-lysine-coated 384-well plates (BD Biosciences) at a density of 5,000 cells per well in culture medium and grown overnight in 5% CO2 at 37° C. On the day of assay, growth media were removed, and cells were loaded with BD calcium assay dye (BD Biosciences) for 35 min at 37° C. under 5% CO2 and then for 25 min at room temp. Utilizing the FDSS, cells were exposed to representative compounds of Formula (I) at varying concentrations, and intracellular calcium was measured for 5 min prior to the addition of 50 mM KCl for an additional 3 min of measurement.
IC50 values for representative compounds of Formula (I) were determined from six-point concentration-response experiments and represent the concentration of said compound required to inhibit 50% of the maximal response. Maximal fluorescence intensity (FI) achieved upon addition of 50 mM KCl was exported from the FDSS software and further analyzed using GraphPad Prism 3.02 (Graph Pad Software Inc., San Diego, Calif., U.S.A.). Data were normalized to the maximum average counts from quadruplicate wells for each condition in the presence of 50 mM KCl and to the minimum average counts in the presence of buffer. Theoretical curves were generated using nonlinear regression curve-fitting analysis of either sigmoidal concentration-response or sigmoidal concentration-response (variable slope), and the IC50 values with the best-fit curve determined by GraphPad Prism were reported.
Background: Calcium flux is commonly read through the fluorescence of an indicator in the cells.

The next assay addresses T2, N-type calcium channel (Homo sapiens, UniProt Q00975).
T2 construct: expressed in transfected cells
Nature of the assay: Automated electrophysiology assay (QPatch-HT whole-cell patch clamp). The format is cell-based. The procedure: Cells were grown in T175 flasks to 50%-90% confluence. At the time of use, cells were enzymatically treated with Detachin (Genlantis, San Diego, Calif. USA), centrifuged, rinsed, and resuspended in 293 SFM II media (Life Technologies, Grand Island, N.Y. U.S.A.) supplemented with 25 mM HEPES (Sigma-Aldrich, St. Louis, Mo. U.S.A.) to a concentration of 2-3×10^6 cells/mL. Cells were added to the automated cell preparation station on the QPatch-HT (Sophion Biosciences, North Brunswick, N.J. U.S.A.), and following a 10- to 30-min recovery period with gentle stirring, the assay protocol was initiated. During the automated cell preparation, cells were collected, centrifuged and resuspended in an extracellular (EC) solution containing 132 mM NaCl, 1.8 mM CaCl2, 5.4 mM KCl, 0.8 mM MgCl2, 10 mM glucose, and 10 mM HEPES (pH=7.4), adjusted with sucrose to approximately 315 m0sm. The QPlate was primed with an intracellular solution containing 135 mM CsCl, 10 mM EGTA, 4 MgATP, 0.3 NaGTP, and 20 mM HEPES (pH=7.2), adjusted to approximately 290 m0sm with deionized water and the EC solution. Cells were added to the prepared QPlate wells by robotic pipettes of the QPatch-HT.
For cells determined to be in stable whole-cell patch clamp, the EC solution was replaced with a barium (Ba)/triethylammonium (TEA) solution containing 140 mM TEA-Cl, 10 mM BaCl2, 0.8 mM MgCl2, 10 mM glucose and 10 mM HEPES (pH=7.4). High (40 mM) BaCl2 concentrations were made with adjustments to TEA-C1 (90 mM) to maintain the osmolarity. From a resting potential of −80 mV, a train of depolarizing pulses (15 pulses at 5 Hz, +20 mV) was delivered to the cell once every 30 sec for eight trains (4 min total), and the resulting currents were measured during a control period (no compound). This protocol was repeated for each subsequent addition of control buffer with or without compound (three periods total, each with four trains). The current generated in the 1st and 15th pulses of the last train of each period in the presence of each drug concentration was normalized to the current generated during the control period at the respective pulses (representing low- and high-frequency stimulation, respectively). Data from both the second and third drug application periods were analyzed for each cell. A final addition of Ba/TEA solution containing 60-100 μM CdCl2 was made to block all N-type current and to “zero” the currents for each cell. All buffer/compound additions were made using a “spitting” feature of the QPatch-HT, which added three repetitions of 5 μL solution at the beginning of each recording period.
To examine closed-state inactivation, cells were subjected to a channel-activating 50-msec depolarizing step pulse from −80 to +10 mV, followed by a 5-sec nonactivating step to voltages ranging from −130 to −60 mV in 10 mV increments and then a 50-ms step from −80 to +10 mV to assess the remaining current. Currents from the activating voltage pulse were normalized to the peak value of the test pulse following the −130 mV step and fit to a Boltzman equation to obtain the V1/2. Roscovitine (Sigma-Aldrich) was prepared as a 100 mM stock in dimethyl sulfoxide and diluted to the indicated working concentrations. […]. Compounds of Formula (I) were diluted first into dimethyl sulfoxide and then into 10% pluronic F-127 in water (Life Technologies), sonicated for 1 min and diluted into EC buffer. Vehicle controls were run in parallel in all experiments.
Unless otherwise indicated, statistics for comparing among electrophysiological results utilized a one-way analysis of variance with Fisher's least squares determination test for pair-wise comparison.
In general terms: Patch clamp records ionic current or voltage across a cell membrane.

The mark [2] stands for this setting: high frequency (15th pulse of train, 5 Hz), read-out: QPatch at High Frequency % Inhibition.
The mark [3] stands for this setting: low frequency (1st pulse of train), read-out: QPatch at Low Frequency % Inhibition.

Where two headings read alike, the source gives them in different places.

In general, IC50 refers to the concentration needed to halve the response being measured. Broadly, the inhibition is the drop in the measured response relative to a control, in per cent.

T2 sequence (Q00975 whole entry): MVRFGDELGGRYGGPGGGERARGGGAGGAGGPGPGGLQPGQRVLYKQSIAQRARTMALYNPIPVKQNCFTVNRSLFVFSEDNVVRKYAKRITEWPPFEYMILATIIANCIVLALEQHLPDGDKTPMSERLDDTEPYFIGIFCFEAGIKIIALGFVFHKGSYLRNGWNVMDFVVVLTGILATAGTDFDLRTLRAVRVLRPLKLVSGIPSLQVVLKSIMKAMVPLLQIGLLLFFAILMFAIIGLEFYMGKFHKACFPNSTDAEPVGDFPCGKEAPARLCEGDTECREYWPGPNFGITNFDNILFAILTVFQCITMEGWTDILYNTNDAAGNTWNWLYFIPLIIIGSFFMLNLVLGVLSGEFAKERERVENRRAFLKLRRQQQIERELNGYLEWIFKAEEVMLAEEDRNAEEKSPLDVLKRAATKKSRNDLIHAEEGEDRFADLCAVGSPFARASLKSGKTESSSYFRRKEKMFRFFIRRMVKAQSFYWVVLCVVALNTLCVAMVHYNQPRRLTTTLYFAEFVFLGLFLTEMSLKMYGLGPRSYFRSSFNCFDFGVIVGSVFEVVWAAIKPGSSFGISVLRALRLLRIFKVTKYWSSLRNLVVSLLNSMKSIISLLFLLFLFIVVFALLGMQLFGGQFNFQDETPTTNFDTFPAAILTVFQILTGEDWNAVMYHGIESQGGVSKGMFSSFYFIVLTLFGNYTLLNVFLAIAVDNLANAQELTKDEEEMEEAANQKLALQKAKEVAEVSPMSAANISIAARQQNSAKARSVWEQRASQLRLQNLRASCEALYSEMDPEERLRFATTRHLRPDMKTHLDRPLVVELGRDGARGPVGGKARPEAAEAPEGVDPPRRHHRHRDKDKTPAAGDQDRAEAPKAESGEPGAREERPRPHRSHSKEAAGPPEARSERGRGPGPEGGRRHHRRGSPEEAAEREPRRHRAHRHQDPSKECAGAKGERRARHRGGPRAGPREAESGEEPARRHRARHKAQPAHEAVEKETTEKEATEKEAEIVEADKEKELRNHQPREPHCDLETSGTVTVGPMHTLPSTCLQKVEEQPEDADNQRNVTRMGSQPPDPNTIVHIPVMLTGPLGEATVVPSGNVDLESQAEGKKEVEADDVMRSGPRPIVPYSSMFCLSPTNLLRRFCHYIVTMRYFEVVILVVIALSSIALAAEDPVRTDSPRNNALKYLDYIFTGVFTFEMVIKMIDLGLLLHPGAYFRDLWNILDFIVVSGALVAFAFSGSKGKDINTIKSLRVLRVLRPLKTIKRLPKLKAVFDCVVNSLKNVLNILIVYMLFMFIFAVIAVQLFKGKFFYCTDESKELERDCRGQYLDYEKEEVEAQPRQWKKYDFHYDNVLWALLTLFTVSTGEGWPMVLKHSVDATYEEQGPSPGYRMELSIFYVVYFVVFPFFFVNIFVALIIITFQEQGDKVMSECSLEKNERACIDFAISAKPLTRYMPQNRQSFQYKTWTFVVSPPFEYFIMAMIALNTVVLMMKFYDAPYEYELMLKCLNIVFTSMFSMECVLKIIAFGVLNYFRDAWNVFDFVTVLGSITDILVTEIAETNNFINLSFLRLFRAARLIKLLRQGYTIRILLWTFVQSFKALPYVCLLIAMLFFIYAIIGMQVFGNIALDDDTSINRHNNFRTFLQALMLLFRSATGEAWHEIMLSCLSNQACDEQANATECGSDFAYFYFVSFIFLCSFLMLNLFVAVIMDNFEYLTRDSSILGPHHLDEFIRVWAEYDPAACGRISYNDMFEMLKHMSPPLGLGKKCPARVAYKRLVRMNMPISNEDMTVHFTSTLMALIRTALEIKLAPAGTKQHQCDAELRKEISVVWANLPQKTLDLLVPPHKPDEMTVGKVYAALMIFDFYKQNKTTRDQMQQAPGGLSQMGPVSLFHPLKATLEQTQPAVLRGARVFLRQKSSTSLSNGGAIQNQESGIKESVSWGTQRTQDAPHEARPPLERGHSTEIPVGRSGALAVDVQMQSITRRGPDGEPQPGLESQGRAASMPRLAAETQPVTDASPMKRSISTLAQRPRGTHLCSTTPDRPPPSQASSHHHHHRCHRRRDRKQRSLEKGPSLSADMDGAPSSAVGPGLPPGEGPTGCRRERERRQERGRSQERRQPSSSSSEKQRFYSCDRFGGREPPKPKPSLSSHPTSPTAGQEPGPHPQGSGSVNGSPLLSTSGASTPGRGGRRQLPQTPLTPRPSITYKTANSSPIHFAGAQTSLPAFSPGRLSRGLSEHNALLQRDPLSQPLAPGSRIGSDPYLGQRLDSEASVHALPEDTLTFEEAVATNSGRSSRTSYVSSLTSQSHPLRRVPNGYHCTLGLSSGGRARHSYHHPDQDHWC
T2 sequence (P54284 whole entry partner): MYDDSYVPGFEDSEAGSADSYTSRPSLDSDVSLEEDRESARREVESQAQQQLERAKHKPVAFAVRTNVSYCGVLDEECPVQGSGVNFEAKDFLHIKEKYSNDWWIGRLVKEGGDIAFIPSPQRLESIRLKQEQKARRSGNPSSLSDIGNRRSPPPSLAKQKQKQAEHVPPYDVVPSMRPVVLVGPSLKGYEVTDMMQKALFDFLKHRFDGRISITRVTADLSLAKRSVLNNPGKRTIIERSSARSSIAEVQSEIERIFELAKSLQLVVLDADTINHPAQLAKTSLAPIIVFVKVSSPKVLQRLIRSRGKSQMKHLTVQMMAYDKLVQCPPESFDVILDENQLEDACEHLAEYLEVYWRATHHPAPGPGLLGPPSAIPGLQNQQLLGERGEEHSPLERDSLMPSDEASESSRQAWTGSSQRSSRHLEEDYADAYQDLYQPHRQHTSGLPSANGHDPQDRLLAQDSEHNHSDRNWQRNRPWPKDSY
T2 sequence (P54289 25-956 partner limits assumed): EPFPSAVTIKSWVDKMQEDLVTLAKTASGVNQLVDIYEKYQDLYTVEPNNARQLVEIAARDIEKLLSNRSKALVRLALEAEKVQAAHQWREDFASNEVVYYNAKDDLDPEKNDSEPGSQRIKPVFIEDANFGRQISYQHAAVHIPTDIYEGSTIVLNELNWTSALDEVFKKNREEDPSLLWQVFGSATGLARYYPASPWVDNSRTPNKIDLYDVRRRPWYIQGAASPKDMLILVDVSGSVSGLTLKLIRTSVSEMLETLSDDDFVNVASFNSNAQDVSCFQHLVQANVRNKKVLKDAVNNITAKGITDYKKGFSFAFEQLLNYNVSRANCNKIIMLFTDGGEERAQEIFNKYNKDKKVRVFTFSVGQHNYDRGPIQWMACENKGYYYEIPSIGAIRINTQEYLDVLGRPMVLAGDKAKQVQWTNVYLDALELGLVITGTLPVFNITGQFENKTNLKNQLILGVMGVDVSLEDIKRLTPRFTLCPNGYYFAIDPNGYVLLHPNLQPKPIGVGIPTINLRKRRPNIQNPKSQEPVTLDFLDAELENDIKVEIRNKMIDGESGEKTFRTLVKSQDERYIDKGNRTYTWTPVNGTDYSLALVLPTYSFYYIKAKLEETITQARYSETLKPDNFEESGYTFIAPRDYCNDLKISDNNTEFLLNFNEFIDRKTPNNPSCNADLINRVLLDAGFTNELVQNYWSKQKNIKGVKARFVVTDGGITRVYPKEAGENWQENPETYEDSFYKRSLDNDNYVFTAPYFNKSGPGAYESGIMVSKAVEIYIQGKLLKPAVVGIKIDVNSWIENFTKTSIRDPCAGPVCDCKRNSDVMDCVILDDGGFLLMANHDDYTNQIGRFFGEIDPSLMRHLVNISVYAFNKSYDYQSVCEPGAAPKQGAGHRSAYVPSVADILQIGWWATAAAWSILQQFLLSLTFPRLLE
T2 sequence (P54289 957-1103 partner limits assumed): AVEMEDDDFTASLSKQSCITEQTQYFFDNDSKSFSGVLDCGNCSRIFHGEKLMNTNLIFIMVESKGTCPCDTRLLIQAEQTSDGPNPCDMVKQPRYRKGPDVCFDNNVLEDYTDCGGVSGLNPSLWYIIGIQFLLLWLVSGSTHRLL
T1 sequence (Q00975 whole entry): as the sequence (Q00975 whole entry) above
T1 sequence (P54284 whole entry partner): as the sequence (P54284 whole entry partner) above
T1 sequence (P54289 25-956 partner limits assumed): as the sequence (P54289 25-956 partner limits assumed) above
T1 sequence (P54289 957-1103 partner limits assumed): as the sequence (P54289 957-1103 partner limits assumed) above

As to `COc1ccccc1-n1nc2c(c1-c1ccc(Cl)cc1)CN(S(=O)(=O)CCNS(=O)(=O)C(C)C)C2` [Cpd 45, N-(2-{[3-(4-Chlorophenyl)-2-(2-methoxyphenyl)-2,6-dihydropyrrolo[3,4-c]pyrazol-5(4H)-yl]sulfonyl}ethyl)propane-2-sulfonamide], the IC50 in assay [1] came out at 13 nM. The inhibition at 0.1 µM on N-type calcium channel (setting [2]) and on N-type calcium channel (setting [3]) was 26% throughout.
For the compound `COc1ccccc1-n1nc2c(c1-c1ccc(Cl)cc1)CN(S(=O)(=O)N(C)C)C2` [Cpd 33, 3-(4-Chlorophenyl)-2-(2-methoxyphenyl)-N,N-dimethyl-2,6-dihydropyrrolo[3,4-c]pyrazole-5(4H)-sulfonamide], the concentration for half-maximal inhibition (IC50) in assay [1] is 9 nM. In addition, the inhibition at 1 µM worked out at 78% on N-type calcium channel (setting [2]) and 74% at N-type calcium channel (setting [3]).
The matching figures for `CCc1ccccc1-n1nc2c(c1-c1ccc(Cl)cc1)CN(C(=O)C(F)(F)F)C2` [Cpd 6, 3-(4-Chlorophenyl)-2-(2-ethylphenyl)-5-(trifluoroacetyl)-2,4,5,6-tetrahydropyrrolo[3,4-c]pyrazole]: 180 nM, 23% and 16%.
With `CCS(=O)(=O)N1Cc2nn(-c3ccccc3N(C)C)c(-c3ccc(Cl)cc3)c2C1` [Cpd 89, 2-[3-(4-Chlorophenyl)-5-(ethylsulfonyl)-5,6-dihydropyrrolo[3,4-c]pyrazol-2(4H)-yl]-N,N-dimethylaniline], in assay [1], the inhibition at 0.33 µM is 90%. In assay [1], the IC50 was 28 nM. Besides, the values for the inhibition at 0.1 µM at N-type calcium channel (setting [2]) and at N-type calcium channel (setting [3]) were 34% and 10%, respectively.
In the case of `COc1ccccc1-n1nc2c(c1-c1ccc(Cl)cc1)CN(S(=O)(=O)C1CC1)C2` [Cpd 32, 3-(4-Chlorophenyl)-5-(cyclopropylsulfonyl)-2-(2-methoxyphenyl)-2,4,5,6-tetrahydropyrrolo[3,4-c]pyrazole], in assay [1], the IC50 was found to be 21 nM. For the same compound, on N-type calcium channel (setting [2]), the inhibition at 0.03 µM was -5%, the inhibition at 0.05 µM is 23%, the inhibition at 0.25 µM was 64% and the inhibition at 1 µM worked out at 83%. For the same compound, on N-type calcium channel (setting [3]), the inhibition at 0.03 µM was -6%, the inhibition at 0.05 µM was 10%, the inhibition at 0.25 µM amounted to 57% and the inhibition at 1 µM amounted to 74%.
For the compound `COc1ccccc1-n1nc2c(c1-c1ccc(Cl)cc1)CN(S(=O)(=O)N1CCOCC1)C2` [Cpd 59, 3-(4-Chlorophenyl)-2-(2-methoxyphenyl)-5-(morpholin-4-ylsulfonyl)-2,4,5,6-tetrahydropyrrolo[3,4-c]pyrazole], the 50% inhibitory concentration (IC50) in assay [1] was 2 nM. Moreover, the results for the inhibition at 0.1 µM on N-type calcium channel (setting [2]) and at N-type calcium channel (setting [3]) were 51% and 28%, respectively.
Turning to `COc1ccccc1-n1nc2c(c1-c1ccc(Cl)cc1)CN(S(=O)(=O)N1CCCCC1)C2` [Cpd 62, 3-(4-Chlorophenyl)-2-(2-methoxyphenyl)-5-(piperidin-1-ylsulfonyl)-2,4,5,6-tetrahydropyrrolo[3,4-c]pyrazole], the IC50 in assay [1] came out at 4 nM. The inhibition at 0.1 µM was determined as 45% on N-type calcium channel (setting [2]) and 20% at N-type calcium channel (setting [3]).
For the compound `CCOc1ccccc1-n1nc2c(c1-c1ccc(Cl)cc1)CN(S(=O)(=O)C(C)C)C2` [Cpd 50, 3-(4-Chlorophenyl)-2-(2-ethoxyphenyl)-5-[(1-methylethyl)sulfonyl]-2,4,5,6-tetrahydropyrrolo[3,4-c]pyrazole], the IC50 in assay [1] turned out to be 3 nM. Besides, the inhibition at 0.1 µM on N-type calcium channel (setting [2]) turned out to be 50%; at N-type calcium channel (setting [3]) it was 42%.
As for `CC(C)CS(=O)(=O)N1Cc2nn(-c3cccc4c3OCC4)c(-c3ccc(Cl)cc3)c2C1` [Cpd 85, 3-(4-Chlorophenyl)-2-(2,3-dihydro-1-benzofuran-7-yl)-5-[(2-methylpropyl)sulfonyl]-2,4,5,6-tetrahydropyrrolo[3,4-c]pyrazole], in assay [1], the inhibition at 0.33 µM worked out at 94% and the half-maximal inhibitory concentration (IC50) was found to be 14 nM. Besides, the inhibition at 0.1 µM at N-type calcium channel (setting [2]) turned out to be 37%. Besides, the inhibition at 0.1 µM at N-type calcium channel (setting [3]) amounted to 13%.
The matching figures for `COc1cc(F)ccc1-n1nc2c(c1-c1ccc(Cl)cc1)CN(S(=O)(=O)C(C)C)C2` [Cpd 71, 3-(4-Chlorophenyl)-2-(4-fluoro-2-methoxyphenyl)-5-[(1-methylethyl)sulfonyl]-2,4,5,6-tetrahydropyrrolo[3,4-c]pyrazole]: 91%, 21 nM, 1% and -30%.
As for `COc1ccccc1-n1nc2c(c1-c1ccc(Cl)cc1)CN(S(=O)(=O)N1CCC(C)CC1)C2` [Cpd 57, 3-(4-Chlorophenyl)-2-(2-methoxyphenyl)-5-[(4-methylpiperidin-1-yl)sulfonyl]-2,4,5,6-tetrahydropyrrolo[3,4-c]pyrazole], in assay [1], the inhibition at 0.33 µM came out at 95% and the concentration for half-maximal inhibition (IC50) is 8 nM. For the same compound, the inhibition at 1 µM on N-type calcium channel (setting [2]) worked out at 82%. In addition, the inhibition at 1 µM at N-type calcium channel (setting [3]) came out at 69%.
With `COc1ccccc1-n1nc2c(c1-c1ccc(Cl)cc1)CN(S(=O)(=O)CCNS(=O)(=O)N(C)C)C2` [Cpd 46, N′-(2-{[3-(4-Chlorophenyl)-2-(2-methoxyphenyl)-2,6-dihydropyrrolo[3,4-c]pyrazol-5(4H)-yl]sulfonyl}ethyl)-N,N-dimethylsulfamide], in assay [1], the IC50 is 5 nM. The inhibition at 0.1 µM at N-type calcium channel (setting [2]) is -6%; on N-type calcium channel (setting [3]), -8%.

The values above are taken from US8846949B2, “Pyrrolopyrazoles as N-type calcium channel blockers” (Janssen Pharmaceutica NV, priority 2012, dated 2014).
